Source: ChEMBL document CHEMBL3885861, “Open TG-GATES”

Species on record: Rattus norvegicus
Assay: Open TG-GATES - Regimen: Daily Repeat
Format: toxicity, organism-based, Sprague-Dawley
Design: regimen Daily Repeat, gender Male, age 6 weeks
Conditions: in vivo, po, 0 mg/kg, route gavage, dose level Control; for APTT / Bas / Eos / Fbg / Hb / Ht / Lym / MCH / MCHC / MCV / Mono / Neu / PT / Plat / RBC / Ret / WBC: tissue Blood; for KIDNEY_L / KIDNEY_R / KIDNEY_TOTAL: tissue Kidney; for LIVER: tissue Liver; for A/G / ALP / ALT / AST / BUN / CRE / Ca / Cl / DBIL / GLC / IP / K / LDH / Na / PL / RALB / TBIL / TC / TG / TP / gamma-GTP: tissue Plasma

O=C(O)COc1nn(Cc2ccccc2)c2ccccc12 [BENDAZAC]
TERMINAL_BW (72 h, time 3 day): 229.2 g
APTT (72 h, time 3 day): 17.5 s
Bas (72 h, time 3 day): 0%
Eos (72 h, time 3 day): 1.2%
Fbg (72 h, time 3 day): 223.2 mg/dL
Hb (72 h, time 3 day): 14.2 g/dL
Ht (72 h, time 3 day): 42.6%
Lym (72 h, time 3 day): 77.2%
MCH (72 h, time 3 day): 21.4 pg
MCHC (72 h, time 3 day): 33.3%
MCV (72 h, time 3 day): 64.4 fL
Mono (72 h, time 3 day): 8.2%
Neu (72 h, time 3 day): 13.8%
PT (72 h, time 3 day): 11.6 s
Plat (72 h, time 3 day): 120.1 x10_4/uL
RBC (72 h, time 3 day): 661.6 x10_4/ul
Ret (72 h, time 3 day): 6.5%
WBC (72 h, time 3 day): 93.7 x10_2/uL
KIDNEY_L (72 h, time 3 day): 1 g
KIDNEY_R (72 h, time 3 day): 1 g
KIDNEY_TOTAL (72 h, time 3 day): 2 g
LIVER (72 h, time 3 day): 11.2 g
A/G (72 h, time 3 day): 2.1
ALP (72 h, time 3 day): 1059.4 IU/L
ALT (72 h, time 3 day): 41.4 IU/L
AST (72 h, time 3 day): 68.6 IU/L
BUN (72 h, time 3 day): 16.6 mg/dL
CRE (72 h, time 3 day): 0.5 mg/dL
Ca (72 h, time 3 day): 10.9 mg/dL
Cl (72 h, time 3 day): 103.4 meq/L
DBIL (72 h, time 3 day): 0.022 mg/dL
GLC (72 h, time 3 day): 206.8 mg/dL
IP (72 h, time 3 day): 7.7 mg/dL
K (72 h, time 3 day): 4.7 meq/L
LDH (72 h, time 3 day): 101.4 IU/L
Na (72 h, time 3 day): 139.8 meq/L
PL (72 h, time 3 day): 162.8 mg/dL
RALB (72 h, time 3 day): 3.9 g/dL
TBIL (72 h, time 3 day): 0.3 mg/dL
TC (72 h, time 3 day): 78.2 mg/dL
TG (72 h, time 3 day): 127.8 mg/dL
TP (72 h, time 3 day): 5.7 g/dL
gamma-GTP (72 h, time 3 day): 1.2 IU/L
TERMINAL_BW ([…], time 7 day): 264.6 g
TERMINAL_BW ([…], time 14 day): 318.4 g
TERMINAL_BW ([…], time 28 day): 399.8 g
APTT ([…], time 7 day): 16.9 s
Bas ([…], time 7 day): 0%
Eos ([…], time 7 day): 0.8%
Fbg ([…], time 7 day): 228.6 mg/dL
Hb ([…], time 7 day): 14.1 g/dL
Ht ([…], time 7 day): 41.4%
Lym ([…], time 7 day): 80.8%
MCH ([…], time 7 day): 21.5 pg
MCHC ([…], time 7 day): 34.1%
MCV ([…], time 7 day): 63.2 fL
Mono ([…], time 7 day): 6%
Neu ([…], time 7 day): 12.6%
PT ([…], time 7 day): 11.5 s
Plat ([…], time 7 day): 128.1 x10_4/uL
RBC ([…], time 7 day): 657 x10_4/ul
Ret ([…], time 7 day): 5.1%
WBC ([…], time 7 day): 96.5 x10_2/uL
APTT ([…], time 14 day): 17.2 s
Bas ([…], time 14 day): 0%
Eos ([…], time 14 day): 0.8%
Fbg ([…], time 14 day): 236 mg/dL
Hb ([…], time 14 day): 14.5 g/dL
Ht ([…], time 14 day): 43%
Lym ([…], time 14 day): 80.4%
MCH ([…], time 14 day): 21.2 pg
MCHC ([…], time 14 day): 33.8%
MCV ([…], time 14 day): 62.8 fL
Mono ([…], time 14 day): 7%
Neu ([…], time 14 day): 11.8%
PT ([…], time 14 day): 11 s
Plat ([…], time 14 day): 122.8 x10_4/uL
RBC ([…], time 14 day): 684.4 x10_4/ul
Ret ([…], time 14 day): 4.3%
WBC ([…], time 14 day): 120.8 x10_2/uL
APTT ([…], time 28 day): 17.8 s
Bas ([…], time 28 day): 0%
Eos ([…], time 28 day): 1%
Fbg ([…], time 28 day): 219 mg/dL
Hb ([…], time 28 day): 15.5 g/dL
Ht ([…], time 28 day): 45.9%
Lym ([…], time 28 day): 83.6%
MCH ([…], time 28 day): 19.8 pg
MCHC ([…], time 28 day): 33.7%
MCV ([…], time 28 day): 58.8 fL
Mono ([…], time 28 day): 4.2%
Neu ([…], time 28 day): 11.4%
PT ([…], time 28 day): 11.7 s
Plat ([…], time 28 day): 115.9 x10_4/uL
RBC ([…], time 28 day): 779.8 x10_4/ul
Ret ([…], time 28 day): 3.5%
WBC ([…], time 28 day): 117.2 x10_2/uL
KIDNEY_L ([…], time 7 day): 1.1 g
KIDNEY_R ([…], time 7 day): 1.2 g
KIDNEY_TOTAL ([…], time 7 day): 2.3 g
KIDNEY_L ([…], time 14 day): 1.3 g
KIDNEY_R ([…], time 14 day): 1.3 g
KIDNEY_TOTAL ([…], time 14 day): 2.6 g
KIDNEY_L ([…], time 28 day): 1.4 g
KIDNEY_R ([…], time 28 day): 1.4 g
KIDNEY_TOTAL ([…], time 28 day): 2.8 g
LIVER ([…], time 7 day): 13.2 g
LIVER ([…], time 14 day): 15.1 g
LIVER ([…], time 28 day): 16.2 g
A/G ([…], time 7 day): 2
ALP ([…], time 7 day): 804.6 IU/L
ALT ([…], time 7 day): 30 IU/L
AST ([…], time 7 day): 60.8 IU/L
BUN ([…], time 7 day): 19.6 mg/dL
CRE ([…], time 7 day): 0.5 mg/dL
Ca ([…], time 7 day): 11.3 mg/dL
Cl ([…], time 7 day): 103.6 meq/L
DBIL ([…], time 7 day): 0.012 mg/dL
GLC ([…], time 7 day): 222.6 mg/dL
IP ([…], time 7 day): 8 mg/dL
K ([…], time 7 day): 4.8 meq/L
LDH ([…], time 7 day): 84.8 IU/L
Na ([…], time 7 day): 141.2 meq/L
PL ([…], time 7 day): 146.2 mg/dL
RALB ([…], time 7 day): 3.9 g/dL
TBIL ([…], time 7 day): 0.3 mg/dL
TC ([…], time 7 day): 70 mg/dL
TG ([…], time 7 day): 111 mg/dL
TP ([…], time 7 day): 5.8 g/dL
gamma-GTP ([…], time 7 day): 1 IU/L
A/G ([…], time 14 day): 1.6
ALP ([…], time 14 day): 749.8 IU/L
ALT ([…], time 14 day): 32 IU/L
AST ([…], time 14 day): 61.2 IU/L
BUN ([…], time 14 day): 18.2 mg/dL
CRE ([…], time 14 day): 0.5 mg/dL
Ca ([…], time 14 day): 10.4 mg/dL
Cl ([…], time 14 day): 105.4 meq/L
DBIL ([…], time 14 day): 0.006 mg/dL
GLC ([…], time 14 day): 197.2 mg/dL
IP ([…], time 14 day): 7.1 mg/dL
K ([…], time 14 day): 4.7 meq/L
LDH ([…], time 14 day): 102.2 IU/L
Na ([…], time 14 day): 141.2 meq/L
PL ([…], time 14 day): 158 mg/dL
RALB ([…], time 14 day): 3.8 g/dL
TBIL ([…], time 14 day): 0.3 mg/dL
TC ([…], time 14 day): 74.8 mg/dL
TG ([…], time 14 day): 153.2 mg/dL
TP ([…], time 14 day): 6.2 g/dL
gamma-GTP ([…], time 14 day): 2.4 IU/L
A/G ([…], time 28 day): 1.4
ALP ([…], time 28 day): 590.2 IU/L
ALT ([…], time 28 day): 33.2 IU/L
AST ([…], time 28 day): 64.4 IU/L
BUN ([…], time 28 day): 20 mg/dL
CRE ([…], time 28 day): 0.6 mg/dL
Ca ([…], time 28 day): 10 mg/dL
Cl ([…], time 28 day): 104.8 meq/L
DBIL ([…], time 28 day): 0.01 mg/dL
GLC ([…], time 28 day): 189.8 mg/dL
IP ([…], time 28 day): 6.4 mg/dL
K ([…], time 28 day): 4.4 meq/L
LDH ([…], time 28 day): 71.4 IU/L
Na ([…], time 28 day): 140.4 meq/L
PL ([…], time 28 day): 142.8 mg/dL
RALB ([…], time 28 day): 3.6 g/dL
TBIL ([…], time 28 day): 0.3 mg/dL
TC ([…], time 28 day): 71.2 mg/dL
TG ([…], time 28 day): 130 mg/dL
TP ([…], time 28 day): 6.2 g/dL
gamma-GTP ([…], time 28 day): 1.8 IU/L
